From US20180002288A1, “USE OF PICOLINAMIDES AS FUNGICIDES” (DOW AGROSCIENCES LLC, priority 2014, published 2018) come the findings set out here.

One experiment deals with Zymoseptoria tritici. The experiment is described as follows: Leaf Blotch of Wheat fungicidal activity (SEPTTR). The experiment is classed as in vivo. To be noted: wheat, high volume, 100 ppm. The procedure:
(§1) All fungicides were evaluated using the aforementioned method for their activity vs. all target diseases, unless stated otherwise. Wheat leaf blotch and brown rust activity were also evaluated using track spray applications, in which case the fungicides were formulated as EC formulations, containing 0.1% Trycol 5941 in the spray solutions. Wheat plants (variety Yuma) were grown from seed in a greenhouse in 50% mineral soil/50% soil-less Metro mix until the first leaf was fully emerged, with 7-10 seedlings per pot. These plants were inoculated with an aqueous spore suspension of Zymoseptoria tritici either prior to or after fungicide treatments. After inoculation the plants were kept in 100% relative humidity (one day in a dark dew chamber followed by two to three days in a lighted dew chamber at 20° C.) to permit spores to germinate and infect the leaf. The plants were then transferred to a greenhouse set at 20° C. for disease to develop. When disease symptoms were fully expressed on the 1st leaves of untreated plants, infection levels were assessed on a scale of 0 to 100 percent disease severity. Percent disease control was calculated using the ratio of disease severity on treated plants relative to untreated plants.

The next experiment concerns Puccinia triticina. Put plainly: Wheat Brown Rust fungicidal activity (PUCCRT). The experiment is classed as in vivo. To be noted: wheat, high volume, 100 ppm. The procedure: as §1, with “plants. Wheat plants (variety Yuma) were grown from seed in a greenhouse in 50% mineral soil/50% soil-less Metro mix until the first leaf was fully emerged, with 7-10 seedlings per pot. These plants were inoculated with an aqueous spore suspension of Puccinia triticina either prior to or after fungicide treatments. […] The plants were then transferred to a greenhouse set at 24° C. for disease to develop. Fungicide formulation, application and disease assessment followed the procedures as described in the Example A.” for “plants.”

Setting [1] is: 24 h, 1 Day Protectant, read-out: SEPTTR 1DP % Control rating.
Setting [2] is: 72 h, 3 Day Curative, read-out: SEPTTR 3DC % Control rating.
Where [3] appears, read: 24 h, 1 Day Protectant, read-out: PUCCRT 1DP % Control rating.
[4] abbreviates: 72 h, 3 Day Curative, read-out: PUCCRT 3DC % Control rating.

Like-named read-outs stand apart in the source and are kept apart here. A value given as a limit tells only on which side of the number the result lay.

As to `COc1ccnc(C(=O)N[C@@H](C)C(=O)O[C@@H](C)[C@@H](OC)c2ccccc2)c1O` [Example 140], the pest or weed control at 100 ppm in the experiment with Zymoseptoria tritici (setting [1]) was less than 0%; in the experiment with Zymoseptoria tritici (setting [2]) it was less than 80%; in the experiment with Puccinia triticina (setting [3]), less than 80%; with Puccinia triticina (setting [4]) it was greater than 80%.
As to `COc1ccnc(C(=O)N[C@@H](C)C(=O)O[C@@H](C)[C@@H](OCC2CC2)c2ccccc2)c1O` [Example 142], the pest or weed control at 100 ppm is less than 80% in the experiment on Zymoseptoria tritici (setting [1]), less than 80% in the experiment on Zymoseptoria tritici (setting [2]), greater than 80% with Puccinia triticina (setting [3]) and greater than 80% in the experiment on Puccinia triticina (setting [4]).
With `COc1ccnc(C(=O)N[C@@H](C)C(=O)O[C@@H](C)[C@H](Oc2ccccc2)c2ccc(-c3ccccc3)cc2)c1O` [Example 144], the pest or weed control at 100 ppm in the experiment on Zymoseptoria tritici (setting [1]) was greater than 80%; in the experiment with Zymoseptoria tritici (setting [2]) it was less than 80%; in the experiment with Puccinia triticina (setting [3]), greater than 80%; with Puccinia triticina (setting [4]), less than 80%.
In the case of `COc1ccnc(C(=O)N[C@@H](C)C(=O)O[C@@H](C)[C@H](Oc2ccccc2)c2cccc(-c3ccccc3)c2)c1O` [Example 145], the pest or weed control at 100 ppm in the experiment with Zymoseptoria tritici (setting [1]) is greater than 80%; in the experiment on Zymoseptoria tritici (setting [2]), greater than 80%; in the experiment on Puccinia triticina (setting [3]), greater than 80%; in the experiment on Puccinia triticina (setting [4]), less than 80%.
For the compound `COc1ccnc(C(=O)N[C@@H](C)C(=O)O[C@@H](C)[C@H](Oc2ccc(F)cc2)c2ccccc2)c1O` [Example 146], the pest or weed control at 100 ppm with Zymoseptoria tritici (setting [1]), in the experiment on Zymoseptoria tritici (setting [2]), in the experiment on Puccinia triticina (setting [3]) and in the experiment with Puccinia triticina (setting [4]) was greater than 80% in each case.
`COc1ccnc(C(=O)N[C@@H](C)C(=O)O[C@@H](C)C(Oc2ccc(F)cc2)c2ccc(F)cc2)c1O` (stereo partly shown) [Example 147]: the pest or weed control at 100 ppm in the experiment on Zymoseptoria tritici (setting [1]) was greater than 80%; in the experiment with Zymoseptoria tritici (setting [2]), greater than 80%; with Puccinia triticina (setting [3]) it was greater than 80%; with Puccinia triticina (setting [4]), less than 80%.
As to `COc1ccnc(C(=O)N[C@@H](C)C(=O)O[C@@H](C)[C@H](Oc2ccccc2)c2ccc(F)cc2)c1O` [Example 148], the pest or weed control at 100 ppm with Zymoseptoria tritici (setting [1]) is less than 80%; in the experiment with Zymoseptoria tritici (setting [2]) it was greater than 80%; in the experiment on Puccinia triticina (setting [3]) it was greater than 80%; in the experiment on Puccinia triticina (setting [4]), less than 80%.
In the case of `COc1ccnc(C(=O)N[C@@H](C)C(=O)O[C@@H](C)[C@H](Oc2ccc(C)cc2Cl)c2ccccc2)c1O` [Example 149], the pest or weed control at 100 ppm in the experiment with Zymoseptoria tritici (setting [1]), with Zymoseptoria tritici (setting [2]), in the experiment with Puccinia triticina (setting [3]) and in the experiment on Puccinia triticina (setting [4]) was greater than 80% in each case.
Consider `COc1ccnc(C(=O)N[C@@H](C)C(=O)O[C@@H](C)[C@H](Oc2ccc(C)cc2Cl)c2ccc(F)cc2)c1O` [Example 150], for which the pest or weed control at 100 ppm with Zymoseptoria tritici (setting [1]) is greater than 80%; with Zymoseptoria tritici (setting [2]), less than 80%; in the experiment on Puccinia triticina (setting [3]) it was greater than 80%; with Puccinia triticina (setting [4]) it was greater than 80%.
For the compound `COc1ccnc(C(=O)N[C@@H](C)C(=O)O[C@@H](C)[C@H](Oc2ccc(C)cc2)c2ccccc2)c1O` [Example 151], the pest or weed control at 100 ppm with Zymoseptoria tritici (setting [1]) is greater than 80%; with Zymoseptoria tritici (setting [2]) it was less than 80%; with Puccinia triticina (setting [3]), greater than 80%; with Puccinia triticina (setting [4]), greater than 80%.
With `COc1ccnc(C(=O)N[C@@H](C)C(=O)O[C@@H](C)[C@H](Oc2ccc(C)cc2)c2ccc(F)cc2)c1O` [Example 152], the pest or weed control at 100 ppm in the experiment on Zymoseptoria tritici (setting [1]), in the experiment with Zymoseptoria tritici (setting [2]), with Puccinia triticina (setting [3]) and in the experiment with Puccinia triticina (setting [4]) was greater than 80% each time.
Regarding `COc1ccnc(C(=O)N[C@@H](C)C(=O)O[C@@H](C)[C@H](Oc2ccccc2)c2ccc(C)cc2)c1O` [Example 154], the pest or weed control at 100 ppm in the experiment with Zymoseptoria tritici (setting [1]), with Zymoseptoria tritici (setting [2]), in the experiment on Puccinia triticina (setting [3]) and in the experiment on Puccinia triticina (setting [4]) was greater than 80% in each case.
With `COc1ccnc(C(=O)N[C@@H](C)C(=O)O[C@@H](C)[C@H](Oc2ccccc2)c2ccc(F)cc2C)c1O` [Example 162], the pest or weed control at 100 ppm with Zymoseptoria tritici (setting [1]), in the experiment with Zymoseptoria tritici (setting [2]), with Puccinia triticina (setting [3]) and in the experiment on Puccinia triticina (setting [4]) was greater than 80% each time.
Regarding `COc1ccnc(C(=O)N[C@@H](C)C(=O)O[C@@H](C)[C@H](Oc2ccccc2)c2ccc(F)cc2Cl)c1O` [Example 163], the pest or weed control at 100 ppm in the experiment on Zymoseptoria tritici (setting [1]), in the experiment with Zymoseptoria tritici (setting [2]), in the experiment on Puccinia triticina (setting [3]) and with Puccinia triticina (setting [4]) was greater than 80% each time.
Take `COc1ccnc(C(=O)N[C@@H](C)C(=O)O[C@@H](C)[C@H](Oc2ccccc2)c2ccc(C)cc2F)c1O` [Example 164]: the pest or weed control at 100 ppm with Zymoseptoria tritici (setting [1]), in the experiment on Zymoseptoria tritici (setting [2]), in the experiment with Puccinia triticina (setting [3]) and in the experiment with Puccinia triticina (setting [4]) was greater than 80% in each case.
Regarding `COc1ccnc(C(=O)N[C@@H](C)C(=O)O[C@@H](C)[C@H](Oc2ccccc2)c2cccc3ccccc23)c1O` [Example 165], the pest or weed control at 100 ppm with Zymoseptoria tritici (setting [1]), in the experiment on Zymoseptoria tritici (setting [2]), with Puccinia triticina (setting [3]) and with Puccinia triticina (setting [4]) was greater than 80% throughout.
Regarding `COc1ccnc(C(=O)N[C@@H](C)C(=O)O[C@@H](C)[C@H](Oc2ccccc2)c2ccc3ccccc3c2)c1O` [Example 166], the pest or weed control at 100 ppm in the experiment with Zymoseptoria tritici (setting [1]), in the experiment with Zymoseptoria tritici (setting [2]), with Puccinia triticina (setting [3]) and in the experiment on Puccinia triticina (setting [4]) was greater than 80% throughout.
On to `C=CCOc1cc(F)ccc1[C@@H](Oc1ccccc1)[C@H](C)OC(=O)[C@H](C)NC(=O)c1nccc(OC)c1O` [Example 167], for which the pest or weed control at 100 ppm in the experiment on Zymoseptoria tritici (setting [1]), in the experiment on Zymoseptoria tritici (setting [2]), in the experiment on Puccinia triticina (setting [3]) and in the experiment on Puccinia triticina (setting [4]) was greater than 80% each time.
Turning to `CCOc1cc(F)ccc1[C@@H](Oc1ccccc1)[C@H](C)OC(=O)[C@H](C)NC(=O)c1nccc(OC)c1O` [Example 168], the pest or weed control at 100 ppm in the experiment with Zymoseptoria tritici (setting [1]), with Zymoseptoria tritici (setting [2]), in the experiment on Puccinia triticina (setting [3]) and in the experiment with Puccinia triticina (setting [4]) was greater than 80% throughout.
Take `COc1cc(F)ccc1[C@@H](Oc1ccc(C)cc1Cl)[C@H](C)OC(=O)[C@H](C)NC(=O)c1nccc(OC)c1O` [Example 169]: the pest or weed control at 100 ppm in the experiment on Zymoseptoria tritici (setting [1]) was greater than 80%; in the experiment on Zymoseptoria tritici (setting [2]), greater than 80%; with Puccinia triticina (setting [3]), greater than 80%; in the experiment with Puccinia triticina (setting [4]), less than 80%.
`COc1cc(C)ccc1[C@@H](Oc1ccccc1)[C@H](C)OC(=O)[C@H](C)NC(=O)c1nccc(OC)c1O` [Example 172]: the pest or weed control at 100 ppm with Zymoseptoria tritici (setting [1]), in the experiment with Zymoseptoria tritici (setting [2]), in the experiment on Puccinia triticina (setting [3]) and in the experiment with Puccinia triticina (setting [4]) was greater than 80% throughout.
On to `COc1cc(F)ccc1[C@@H](Oc1ccc(C)cc1)[C@H](C)OC(=O)[C@H](C)NC(=O)c1nccc(OC)c1O` [Example 173], for which the pest or weed control at 100 ppm in the experiment on Zymoseptoria tritici (setting [1]), in the experiment with Zymoseptoria tritici (setting [2]), with Puccinia triticina (setting [3]) and in the experiment with Puccinia triticina (setting [4]) was greater than 80% in each case.
With `COc1ccnc(C(=O)N[C@@H](C)C(=O)O[C@@H](C)[C@H](Oc2ccccc2)c2ccc(F)cc2OCC2CC2)c1O` [Example 175], the pest or weed control at 100 ppm in the experiment with Zymoseptoria tritici (setting [1]) is greater than 80%; in the experiment on Zymoseptoria tritici (setting [2]), less than 80%; in the experiment on Puccinia triticina (setting [3]) it was greater than 80%; in the experiment on Puccinia triticina (setting [4]), greater than 80%.
On to `COc1ccnc(C(=O)N[C@@H](C)C(=O)O[C@@H](C)[C@H](Oc2ccccc2)c2ccc(F)cc2OCC(F)F)c1O` [Example 176], for which the pest or weed control at 100 ppm in the experiment with Zymoseptoria tritici (setting [1]), in the experiment on Zymoseptoria tritici (setting [2]), in the experiment with Puccinia triticina (setting [3]) and with Puccinia triticina (setting [4]) was greater than 80% each time.
Turning to `COc1cc(C)ccc1[C@@H](Oc1ccc(C)cc1)[C@H](C)OC(=O)[C@H](C)NC(=O)c1nccc(OC)c1O` [Example 177], the pest or weed control at 100 ppm in the experiment on Zymoseptoria tritici (setting [1]) is greater than 80%; in the experiment with Zymoseptoria tritici (setting [2]), greater than 80%; in the experiment with Puccinia triticina (setting [3]), less than 80%; in the experiment with Puccinia triticina (setting [4]), less than 0%.
